The record followed here is patent publication US20120083522A1, “MODULATION OF INFLAMMATORY RESPONSES BY FACTOR XI” (Isis Pharmaceuitcals, inc., priority 2009, published 2012).

Format in all cases: cell-based
For data set [1], the system named is human Factor XI mRNA. Nature of the data set: Antisense inhibition in HepG2 cells by microwalk gapmers, 8,000 nM, electroporation (Example 14). The note with it: HepG2 cells, 8,000 nM. On the procedure:
These microwalk gapmers were tested in vitro. Cultured HepG2 cells at a density of 20,000 cells per well were transfected using electroporation with 8,000 nM antisense oligonucleotide. After a treatment period of approximately 24 hours, RNA was isolated from the cells and Factor XI mRNA levels were measured by quantitative real-time PCR. Factor XI mRNA levels were adjusted according to total RNA content, as measured by RIBOGREEN. Results are presented as percent inhibition of Factor XI, relative to untreated control cells.
The chimeric antisense oligonucleotides in Table 51 were designed as 5-10-5 MOE, 5-8-5 and 6-8-6 MOE gapmers. The first two listed gapmers in Table 51 are the original gapmers (ISIS 416850 and ISIS 416858) from which ISIS 445493-445543 were designed via microwalk, and are designated by an asterisk. The 5-10-5 gapmers are 20 nucleotides in length, wherein the central gap segment is comprised of ten 2′-deoxynucleotides and is flanked on both sides (in the 5′ and 3′ directions) by wings comprising five nucleotides each. The 5-8-5 gapmers are 18 nucleotides in length, wherein the central gap segment is comprised of eight 2′-deoxynucleotides and is flanked on both sides (in the 5′ and 3′ directions) by wings comprising five nucleotides each. The 6-8-6 gapmers are 20 nucleotides in length, wherein the central gap segment is comprised of eight 2′-deoxynucleotides and is flanked on both sides (in the 5′ and 3′ directions) by wings comprising six nucleotides each. For each of the motifs (5-10-5, 5-8-5 and 6-8-6), each nucleotide in the 5′ wing segment and each nucleotide in the 3′ wing segment has a 2′-MOE modification. The internucleoside linkages throughout each gapmer are phosphorothioate (P═S) linkages. All cytidine residues throughout each gapmer are 5-methylcytidines. “Human Target start site” indicates the 5′-most nucleotide to which the gapmer is targeted in the human sequence. “Human Target stop site” indicates the 3′-most nucleotide to which the gapmer is targeted in the human sequence. Each gapmer listed in Table 51 is targeted to SEQ ID NO: 1 (GENBANK Accession No. NM_000128.3). Each gapmer is Table 51 is also fully cross-reactive with the rhesus monkey Factor XI gene sequence, designated herein as SEQ ID NO: 274 (exons 1-15 GENBANK Accession No. NW—001118167.1). ‘Rhesus monkey start site’ indicates the 5′-most nucleotide to which the gapmer is targeted in the rhesus monkey sequence. ‘Rhesus monkey stop site’ indicates the 3′-most nucleotide to which the gapmer is targeted to the rhesus monkey sequence.

Data set [2] concerns human Factor XI mRNA. The experiment in a line: Dose-dependent inhibition and IC50 in HepG2 cells, electroporation (Example 15). On the procedure: Cells were plated at a density of 20,000 cells per well and transfected using electroporation with 123.46 nM, 370.37 nM, 1,111.11 nM, 3,333.33 nM and 10,000 nM concentrations of antisense oligonucleotide, as specified in Table 52. After a treatment period of approximately 16 hours, RNA was isolated from the cells and Factor XI mRNA levels were measured by quantitative real-time PCR. Human Factor XI primer probe set RTS 2966 was used to measure mRNA levels. Factor XI mRNA levels were adjusted according to total RNA content, as measured by RIBOGREEN. Results are presented as percent inhibition of Factor XI, relative to untreated control cells.

For data set [3], the system named is human Factor XI mRNA. The experiment in a line: Antisense inhibition in HepG2 cells by microwalk gapmers, 75 nM, lipofectin (Example 3). The settings on record: HepG2 cells, 75 nM, oligonucleotides targeted to nucleobases 1275 to 1318 of SEQ ID NO: 1. The essentials:
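HepG2 cells (10,000 per well) were transfected with 75 nM gapmer using lipofectin and treated for about 24 h. Factor XI mRNA was quantified by real-time PCR, normalized to RiboGreen total RNA and expressed as percent inhibition versus untreated controls.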

pIC50: −log10 of the molar value. In the oligonucleotide strings, read from the 5' end, every base follows the letter of its sugar. An asterisk marks phosphorothioate; unmarked linkages are phosphodiester. Other units and linkages are bracketed, terminal groups are in braces. A string of capitals states the bases alone. e = 2'-O-(2-methoxyethyl) (MOE); [5mC] = 5-methylcytosine; d = 2'-deoxy (DNA)

In the case of “416849 (antisense eG*e[5mC]*eA*e[5mC]*eA*dG*dT*dT*dT*d[5mC]*dT*dG*dG*d[5mC]*dA*eG*eG*e[5mC]*e[5mC]*eT) [compound 416849]”, the “Percent inhibition of human Factor XI mRNA levels” value with human Factor XI mRNA [1] is 88%. Besides, the “percent inhibition of Factor XI mRNA” value with human Factor XI mRNA [2] (electroporation, 123.47 nM) is given as 5%; in the data set with human Factor XI mRNA [2] (electroporation, 370.37 nM) it was 5%; with human Factor XI mRNA [2] (electroporation, 1,111.11 nM), 26%; with human Factor XI mRNA [2] (electroporation, 3,333.33 nM), 57%; in the data set on human Factor XI mRNA [2] (electroporation, 10,000.0 nM), 68%. Besides, in the data set with human Factor XI mRNA [3], the “% inhibition of human Factor XI mRNA levels” value (shortened to “% inhibition”) stood at 88%.
Consider “416853 (antisense eT*eT*eG*eG*eT*dG*d[5mC]*dA*d[5mC]*dA*dG*dT*dT*dT*d[5mC]*eT*eG*eG*e[5mC]*eA) [compound 416853]”, for which the “Percent inhibition of human Factor XI mRNA levels” value with human Factor XI mRNA [1] came out at 84%. Besides, in the data set on human Factor XI mRNA [3], the “% inhibition” value is given as 91%.
In the same order, the values of “416854 (antisense eA*eT*eT*eG*eG*dT*dG*d[5mC]*dA*d[5mC]*dA*dG*dT*dT*dT*e[5mC]*eT*eG*eG*e[5mC]) [compound 416854]” are 86% and 90%.
For “416855 (antisense e[5mC]*eA*eT*eT*eG*dG*dT*dG*d[5mC]*dA*d[5mC]*dA*dG*dT*dT*eT*e[5mC]*eT*eG*eG) [compound 416855]”, in the data set on human Factor XI mRNA [1], the “Percent inhibition of human Factor XI mRNA levels” value is given as 85%. Further, the “% inhibition” value in the data set on human Factor XI mRNA [3] was 87%.
Regarding “416857 (antisense e[5mC]*eG*eG*e[5mC]*eA*dT*dT*dG*dG*dT*dG*d[5mC]*dA*d[5mC]*dA*eG*eT*eT*eT*e[5mC]) [compound 416857]”, the “Percent inhibition of human Factor XI mRNA levels” value with human Factor XI mRNA [1] came to 91%. For the same substance, the “percent inhibition of Factor XI mRNA” value in the data set with human Factor XI mRNA [2] (electroporation, 123.47 nM) was 2%; in the data set on human Factor XI mRNA [2] (electroporation, 370.37 nM), 20%; with human Factor XI mRNA [2] (electroporation, 1,111.11 nM), 35%; with human Factor XI mRNA [2] (electroporation, 3,333.33 nM) it was 62%; in the data set on human Factor XI mRNA [2] (electroporation, 10,000.0 nM), 72%. In addition, in the data set with human Factor XI mRNA [3], the “% inhibition” value is recorded as 92%.
As for “416862 (antisense eA*eG*e[5mC]*eG*eG*dA*d[5mC]*dG*dG*d[5mC]*dA*dT*dT*dG*dG*eT*eG*e[5mC]*eA*e[5mC]) [compound 416862]”, the “Percent inhibition of human Factor XI mRNA levels” value with human Factor XI mRNA [1] stood at 89%. For the same substance, in the data set with human Factor XI mRNA [3], the “% inhibition” value worked out at 90%.
In the same order, the values of “416865 (antisense eT*eG*eG*e[5mC]*eA*dG*d[5mC]*dG*dG*dA*d[5mC]*dG*dG*d[5mC]*dA*eT*eT*eG*eG*eT) [compound 416865]” are 86% and 88%.
For the substance “445498 (antisense GGTGCACAGTTTCTGGCAGG; 6-8-6 gapmer chemistry, chemistry not fully specified) [compound 445498]”, in the data set with human Factor XI mRNA [1], the “Percent inhibition of human Factor XI mRNA levels” value came out at 83%. The “percent inhibition of Factor XI mRNA” value with human Factor XI mRNA [2] (electroporation, 123.47 nM) was 3%; with human Factor XI mRNA [2] (electroporation, 370.37 nM), 1%; in the data set with human Factor XI mRNA [2] (electroporation, 1,111.11 nM), 27%; in the data set with human Factor XI mRNA [2] (electroporation, 3,333.33 nM) it was 50%; with human Factor XI mRNA [2] (electroporation, 10,000.0 nM), 58%.
For “445503 (antisense GCATTGGTGCACAGTTTCTG; 6-8-6 gapmer chemical modifications, chemistry not fully specified) [compound 445503]”, the “Percent inhibition of human Factor XI mRNA levels” value in the data set on human Factor XI mRNA [1] was 89%. For the same substance, the pIC50 with human Factor XI mRNA [2] (electroporation) was 5.23. The “percent inhibition of Factor XI mRNA” value in the data set on human Factor XI mRNA [2] (electroporation, 123.47 nM) is 0%; with human Factor XI mRNA [2] (electroporation, 370.37 nM), 0%; in the data set on human Factor XI mRNA [2] (electroporation, 1,111.11 nM) it was 22%; with human Factor XI mRNA [2] (electroporation, 3,333.33 nM), 36%; with human Factor XI mRNA [2] (electroporation, 10,000.0 nM), 60%.
For the substance “445504 (antisense eG*eG*e[5mC]*eA*eT*eT*dG*dG*dT*dG*d[5mC]*dA*d[5mC]*dA*eG*eT*eT*eT*e[5mC]*eT) [compound 445504]”, the “Percent inhibition of human Factor XI mRNA levels” value in the data set on human Factor XI mRNA [1] is 87%. For the same substance, the “percent inhibition of Factor XI mRNA” value is reported as 8% with human Factor XI mRNA [2] (electroporation, 123.47 nM); 20% in the data set on human Factor XI mRNA [2] (electroporation, 370.37 nM); 38% with human Factor XI mRNA [2] (electroporation, 1,111.11 nM); 53% with human Factor XI mRNA [2] (electroporation, 3,333.33 nM); 68% in the data set with human Factor XI mRNA [2] (electroporation, 10,000.0 nM).
In the case of “445505 (antisense e[5mC]*eG*eG*e[5mC]*eA*eT*dT*dG*dG*dT*dG*d[5mC]*dA*d[5mC]*eA*eG*eT*eT*eT*e[5mC]) [compound 445505]”, the “Percent inhibition of human Factor XI mRNA levels” value in the data set on human Factor XI mRNA [1] is on record as 89%. Further, the “percent inhibition of Factor XI mRNA” value in the data set on human Factor XI mRNA [2] (electroporation, 123.47 nM) is 12%; with human Factor XI mRNA [2] (electroporation, 370.37 nM), 30%; in the data set on human Factor XI mRNA [2] (electroporation, 1,111.11 nM), 39%; in the data set with human Factor XI mRNA [2] (electroporation, 3,333.33 nM), 59%; with human Factor XI mRNA [2] (electroporation, 10,000.0 nM) it was 77%.
In the case of “445532 (antisense e[5mC]*eG*eG*e[5mC]*eA*dT*dT*dG*dG*dT*dG*d[5mC]*dA*e[5mC]*eA*eG*eT*eT) [compound 445532]”, in the data set on human Factor XI mRNA [1], the “Percent inhibition of human Factor XI mRNA levels” value worked out at 89%. Besides, the “percent inhibition of Factor XI mRNA” value in the data set on human Factor XI mRNA [2] (electroporation, 123.47 nM) was determined as 5%; in the data set on human Factor XI mRNA [2] (electroporation, 370.37 nM), 12%; with human Factor XI mRNA [2] (electroporation, 1,111.11 nM) it was 39%; with human Factor XI mRNA [2] (electroporation, 3,333.33 nM), 60%; with human Factor XI mRNA [2] (electroporation, 10,000.0 nM), 70%.
On to “445538 (antisense eA*eG*e[5mC]*eG*eG*dA*d[5mC]*dG*dG*d[5mC]*dA*dT*dT*eG*eG*eT*eG*e[5mC]) [compound 445538]”, for which the “Percent inhibition of human Factor XI mRNA levels” value in the data set on human Factor XI mRNA [1] was determined as 80%.
On to “445539 (antisense e[5mC]*eA*eG*e[5mC]*eG*dG*dA*d[5mC]*dG*dG*d[5mC]*dA*dT*eT*eG*eG*eT*eG) [compound 445539]”, for which the “Percent inhibition of human Factor XI mRNA levels” value in the data set on human Factor XI mRNA [1] came out at 79%.
Same read-out and setting: as for “445540 (antisense eG*e[5mC]*eA*eG*e[5mC]*dG*dG*dA*d[5mC]*dG*dG*d[5mC]*dA*eT*eT*eG*eG*eT) [compound 445540]”, the figure is 74%.
The same measure, in the same setting: as for “445541 (antisense eG*eG*e[5mC]*eA*eG*d[5mC]*dG*dG*dA*d[5mC]*dG*dG*d[5mC]*eA*eT*eT*eG*eG) [compound 445541]”, the figure is 80%; as for “445542 (antisense eT*eG*eG*e[5mC]*eA*dG*d[5mC]*dG*dG*dA*d[5mC]*dG*dG*e[5mC]*eA*eT*eT*eG) [compound 445542]”, 83%.
Still for that read-out and setting: as for “445543 (antisense e[5mC]*eT*eG*eG*e[5mC]*dA*dG*d[5mC]*dG*dG*dA*d[5mC]*dG*eG*e[5mC]*eA*eT*eT) [compound 445543]”, the figure is 74%.

The term pIC50 denotes the IC50 on a negative log10 scale, so that one unit is a factor of ten. Lower therefore signals a high IC50.
